Experimental data from a melting point compilation (Tetko et al.).

## Nc1ccccc1-c1nc(-c2ccccc2)n[nH]1
  melting point: 177 to 179 °C

## O=C(c1cccnc1)c1csc2ccccc12
  melting point: 109 to 111 °C

## N#CCc1cc(Br)ccc1F
  melting point: 43 to 45 °C

## CCOc1ccccc1C(N)=S
  melting point: 115 to 117 °C

## CC(C)C(NC(=O)Nc1ccccc1)C(=O)O (stereo not given)
  melting point: 140 to 142 °C

## Nc1ccccc1C(=O)Nc1ccc(Cl)cc1
  melting point: 44 to 45 °C

## CC(C)C(Br)C(=O)NC(C)(C)C (stereo not given)
  melting point: 135 to 137 °C

## Cc1ccc(NC(=O)OC(C)(C)C)cc1O
  melting point: 109 to 111 °C

## O=C(O)c1oc2ccccc2c1CSC1=NCCS1
  melting point: 190 to 192 °C

## O=C(Nc1ccc(F)cc1F)OCC(F)(F)F
  melting point: 72 to 74 °C

## Cc1nn(-c2cccc(F)c2)c(C(F)F)c1C(=O)O
  melting point: 187 to 189 °C

## O=C1NC(=O)C2(CCOCC2)N1
  melting point: 264 to 266 °C

## CCOC(=O)c1cnc2c(C)cc(Br)cc2c1Cl
  melting point: 101 to 103 °C

## COc1ccccc1-c1c[nH]cc1C(=O)O
  melting point: 195 to 197 °C

## Cc1noc(-c2cccnc2Cl)n1
  melting point: 65 to 67 °C

## Cc1nnnn1-c1ccc(F)c(N)c1
  melting point: 156 to 158 °C

## NC(=O)COc1ccccc1C(=O)O
  melting point: 199 to 201 °C

## Cc1ccc(-c2nnc(CCC(=O)O)o2)cc1
  melting point: 169 to 171 °C

## Cc1nc(-c2cccnc2)[nH]c(=O)c1CC(=O)O
  melting point: 263 to 265 °C

## O=C(O)c1cc(C=Cc2ccncc2)nc2ccc(Br)cc12
  melting point: 309 to 311 °C

## Cc1cc(-n2cccc2)ccc1C(=O)O
  melting point: 150 to 152 °C

## NNC(=O)c1ccc(Cl)c(S(N)(=O)=O)c1
  melting point: 212 to 214 °C

## Cc1ccc(C(=O)C(Cl)c2ccc(C)cc2)cc1 (stereo not given)
  melting point: 67 to 69 °C

## O=S(=O)(Nc1cccc(Cl)c1)c1ccc2oc(S)nc2c1
  melting point: 173 to 175 °C

## Cc1cscc1C(=O)O
  melting point: 135 to 137 °C

## Nc1c(Br)cc(Cl)cc1C(=O)O
  melting point: 232 to 234 °C

## Cc1sc(C(=O)O)cc1[N+](=O)[O-]
  melting point: 97 to 99 °C

## CCCS(=O)(=O)Nc1ccccc1C(=O)O
  melting point: 150 to 152 °C

## Cc1ncc2ccccn12
  melting point: 46 to 48 °C

## Cn1cc(C2CC2C(=O)O)cn1 (stereo not given)
  melting point: 138 to 140 °C

## CC1COc2ccccc2C1O (stereo not given)
  melting point: 95 to 97 °C

## N#Cc1cncs1
  melting point: 51 to 53 °C

## CCOC(=O)c1c(C)oc2cc3c(C(=O)OCC)c(C)oc3cc12
  melting point: 187 to 189 °C

## O=[N+]([O-])c1ccc(-c2nc(CCl)co2)cc1
  melting point: 119 to 121 °C

## COc1cc(NC(=O)C2CC2)c(C(=O)O)cc1OC
  melting point: 236 to 238 °C

## Cc1cc2cc(C(=O)O)oc2cc1C
  melting point: 269 to 271 °C

## Cc1ccc(Br)c2c1NC(=O)C2=O
  melting point: 239 to 241 °C

## Nc1nnc(C2COc3ccccc3O2)o1 (stereo not given)
  melting point: 210 to 212 °C

## CS(=O)(=O)Nc1ccc(O)c(C(=O)O)c1
  melting point: 228 to 230 °C

## CC(C)(C)c1ccc(/C=C/c2cc(C(=O)O)c3cc(Br)ccc3n2)cc1
  melting point: 319 to 321 °C

## NNc1c([N+](=O)[O-])cc(C(F)(F)F)cc1[N+](=O)[O-]
  melting point: 129 to 131 °C

## CCCC1CNCCN1 (stereo not given)
  melting point: 59 to 61 °C

## Nc1ccc(-n2nccn2)cc1C(F)(F)F
  melting point: 84 to 86 °C

## O=S(=O)(Cl)CCOc1ccc(F)cc1
  melting point: 34 to 36 °C

## O=C(O)c1cccc(S(=O)(=O)N2CCCCC2)c1
  melting point: 178 to 180 °C

## Cn1c(=O)c(Br)c(N)n(Cc2ccccc2)c1=O
  melting point: 210 to 212 °C

## CCNC(=O)Nc1cccc(F)c1C(=O)O
  melting point: 159 to 161 °C

## O=C(O)CCNC(=O)c1ccc(F)cc1F
  melting point: 118 to 120 °C

## Cc1c(-c2ccncc2)n[nH]c1N
  melting point: 160 to 162 °C

## COc1ccc(C2C(C(N)=O)CCC(=O)N2C)cc1 (stereo not given)
  melting point: 220 to 222 °C

## Cc1cc(CN2CCNCC2)no1
  melting point: 59 to 71 °C

## O=C(O)c1cccc(-n2cccn2)n1
  melting point: 184 to 186 °C

## NNC(=S)NCC(F)(F)F
  melting point: 158 to 160 °C

## O=C(O)c1cccn1Cc1ccccc1
  melting point: 124 to 126 °C

## O=C(O)C(Oc1cccc(Cl)c1Cl)c1ccccc1 (stereo not given)
  melting point: 147 to 149 °C
